According to publication PMC8405091, “Microwave-assisted Phospha-Michael addition reactions in the 13α-oestrone series and in vitro antiproliferative properties” (Journal of Enzyme Inhibition and Medicinal Chemistry, 2021):
Like-named read-outs stand apart in the source and are kept apart here.

What was measured:
[1] = tested on: HeLa cells; assay: MTT antiproliferative assay, HeLa; format: cell-based, human; conditions: 72 h; for IC50: read-out: calculated IC50 value
Description: (§1) The antiproliferative properties of the newly synthesized compounds (9–20) and their starting materials (4 and 5) were determined on a panel of human adherent cancer cell lines. MCF-7, MDA-MB-231 and T47D were isolated from breast cancers differing in biochemical background, while A2780 cells were isolated from ovarian cancer. HeLa and SiHa are cervical cancer cell lines positive for HPV-18 and HPV-16, respectively, while C33-A cervical cancer cells are negative for HPV. Moreover, two oropharyngeal cancer cell lines were also utilized: the HPV-negative UPCI-SCC-131 and HPV-16 positive UPCI-SCC-154. The cancer selectivity of compounds was tested on the non-cancerous mouse embryo fibroblast cell line NIH/3T3. All cell lines were purchased from European Collection of Cell Cultures (ECCAC, Salisbury, UK) exception for SiHa and C33-A (American Tissue Culture Collection, Manassas, VA, USA) and HN-SCC-131 and UPCI-SCC-154 (German Collection of Microorganisms and Cell Cultures GmbH, Braunschweig, Germany). Cells were cultivated in minimal essential medium supplemented with 10% fetal bovine serum, 1% non-essential amino acids and an antibiotic–antimycotic mixture. The medium of oropharyngeal cancer cells additionally contained 2.0 mM L-glutamine. All media and supplements were obtained from Lonza Group Ltd., Basel, Switzerland. Near-confluent cancer cells were seeded onto a 96-well microplate at a density of 5,000 cells/well, except for C33-A which were seeded at 10,000/well. After overnight standing, new medium containing the tested compounds at 10 and 30 µM final concentration was added. After incubation for 72 h at 37 °C in humidified air containing 5% CO2, the living cells were assayed by the addition of 20 μL of 5 mg/ml 3-(4,5-dimethylthiazol-2-yl)-2,5-diphenyltetrazolium bromide (MTT) solution. MTT was converted by intact mitochondrial reductase and precipitated as purple crystals during a 4-h contact period. The medium was next removed and the precipitated formazan crystals were dissolved in 100 μL of DMSO during a 60-min period of shaking at 37 ^оC.
(§2) All in vitro experiments were carried out twice with five parallels. Stock solutions of the tested substances (10 mM) were prepared in DMSO. […] Cisplatin (Ebewe Pharma GmbH, Unterach, Austria) was used as positive control.

[2] = tested on: SiHa cells; assay: MTT antiproliferative assay, SiHa; format: cell-based, human; conditions: 72 h; for IC50: read-out: calculated IC50 value
Description: as §1, §2

[3] = tested on: C33-A cells; assay: MTT antiproliferative assay, C33-A; format: cell-based, human; conditions: 72 h; for IC50: read-out: calculated IC50 value
Description: as §1, §2

[4] = tested on: T47D cells; assay: MTT antiproliferative assay, T47D; format: cell-based, human; conditions: 72 h; for IC50: read-out: calculated IC50 value
Description: as §1, §2

[5] = tested on: A2780 cells; assay: MTT antiproliferative assay, A2780; format: cell-based, human; conditions: for IC50: read-out: calculated IC50 value
Description: as §1, §2

[6] = tested on: MDA-MB-231 cells; assay: MTT antiproliferative assay, MDA-MB-231; format: cell-based, human; conditions: for IC50: read-out: calculated IC50 value; for Growth inhibition; % ± SEM: 72 h
Description: as §1, §2

[7] = tested on: UPCI-SCC-154 cells; assay: MTT antiproliferative assay, UPCI-SCC-154; format: cell-based, human; conditions: for IC50: read-out: calculated IC50 value
Description: as §1, §2

[8] = tested on: UPCI-SCC-131 cells; assay: MTT antiproliferative assay, UPCI-SCC-131; format: cell-based, human; conditions: for IC50: read-out: calculated IC50 value
Description: as §1, §2

[9] = tested on: MCF-7 cells; assay: MTT antiproliferative assay, MCF-7; format: cell-based, human; conditions: for IC50: read-out: calculated IC50 value
Description: as §1, §2

[10] = tested on: non-cancerous mouse embryo fibroblast (NIH/3T3) cells; assay: MTT assay on non-cancerous fibroblasts (tumour selectivity); format: cell-based; conditions: for IC50: read-out: calculated IC50 value; for Growth inhibition; % ± SEM: 72 h
Description: as §1, §2

[11] = Homo sapiens, read-out: Growth inhibition, % ± SEM, 10 μM
[12] = Homo sapiens, read-out: Growth inhibition, % ± SEM, 30 μM
[13] = Homo sapiens, MDA-MB-231, 72 h, read-out: Growth inhibition, % ± SEM
[14] = Mus musculus, NIH3T3, 72 h, read-out: Growth inhibition, % ± SEM

With `COc1ccc2c(c1)CC[C@@H]1[C@@H]2CC[C@@]2(C)C(=O)[C@H](CP(=O)(c3ccccc3)c3ccccc3)C[C@@H]12` [Compound 9, [(3-methoxy-17-oxo-13α-oestra-1,3,5(10)-trien-16α-yl)methyl]diphenylphosphine oxide] the inhibition at 10 µM [1, 11] was < 20%, the inhibition at 30 µM [1, 12] was 97.59 ± 0.73% and the IC50 ([1]; Homo sapiens) was 12.9 µM. The inhibition at 10 µM [2, 11] was < 20%, the inhibition at 30 µM [2, 12] was 96.5 ± 1.24% and the IC50 ([2]; Homo sapiens) was 13.8 µM. For the same molecule, the inhibition at 10 µM ([3]; Homo sapiens, C-33-A, read-out: Growth inhibition, % ± SEM, C33-A, 10 μM) was < 20%, the inhibition at 30 µM ([3]; Homo sapiens, C-33-A, read-out: Growth inhibition, % ± SEM, C33-A, 30 μM) was 97.85 ± 0.32% and the IC50 ([3]; Homo sapiens, C-33-A) was 13.3 µM. It also gave an inhibition at 10 µM [4, 11] of 57.5 ± 3.15%, an inhibition at 30 µM [4, 12] of 93.77 ± 0.55% and an IC50 ([4]; Homo sapiens) of 7.2 µM. For the same molecule, the inhibition at 10 µM ([5]; Homo sapiens, A2780, 72 h, read-out: Growth inhibition, % ± SEM, A2780, 10 μM, 72 h) was 47.2 ± 2.75%, the inhibition at 30 µM ([5]; Homo sapiens, A2780, 72 h, read-out: Growth inhibition, % ± SEM, A2780, 30 μM, 72 h) was 98.99 ± 0.41% and the IC50 ([5]; Homo sapiens, A2780, 72 h) was 11.7 µM. For the same molecule, the inhibition at 10 µM [6, 13] was < 20%, the inhibition at 30 µM [6, 13] was 99.03 ± 0.73% and the IC50 ([6]; Homo sapiens, MDA-MB-231, 72 h) was 23.5 µM. For the same molecule, the inhibition at 10 µM ([7]; Homo sapiens, 72 h, read-out: Growth inhibition, % ± SEM, UPCI-SCC-154, 10 μM, 72 h) was < 20%, the inhibition at 30 µM ([7]; Homo sapiens, 72 h, read-out: Growth inhibition, % ± SEM, UPCI-SCC-154, 30 μM, 72 h) was 99.8 ± 1.48% and the IC50 ([7]; Homo sapiens, 72 h) was 13.5 µM. For the same molecule, the inhibition at 10 µM ([8]; Homo sapiens, 72 h, read-out: Growth inhibition, % ± SEM, UPCI-SCC-131, 10 μM, 72 h) was 63.4 ± 1.41%, the inhibition at 30 µM ([8]; Homo sapiens, 72 h, read-out: Growth inhibition, % ± SEM, UPCI-SCC-131, 30 μM, 72 h) was 99.35 ± 0.27% and the IC50 ([8]; Homo sapiens, 72 h) was 5.3 µM. The inhibition at 10 µM ([9]; Homo sapiens, MCF7, 72 h, read-out: Growth inhibition, % ± SEM, MCF-7, 10 μM, 72 h) was 21.3 ± 2.79%, the inhibition at 30 µM ([9]; Homo sapiens, MCF7, 72 h, read-out: Growth inhibition, % ± SEM, MCF-7, 30 μM, 72 h) was 93.1 ± 1.6% and the IC50 ([9]; Homo sapiens, MCF7, 72 h) was 13.7 µM. The inhibition at 10 µM [10, 14] was < 20%, the inhibition at 30 µM [10, 14] was 96.55 ± 0.86% and the IC50 ([10]; Mus musculus, NIH3T3, 72 h) was 20.4 µM. For the same molecule, the “Tumour selectivity: IC50 on NIH/3T3 relative to IC50 on UPCI-SCC-131” value ([10]; NIH/3T3 vs UPCI-SCC-131) was “four times higher”.

In the case of `N.N.[Cl][Pt][Cl]` [CIS, Cisplatin, reference compound], the “Growth inhibition; % ± SEM” value ([1]; 10 μM) is reported as 42.61 ± 2.33%, the “Growth inhibition; % ± SEM” value ([1]; 30 μM) is reported as 99.93 ± 0.26% and the IC50 [1] is reported as 12.4 µM. For the same molecule, the “Growth inhibition; % ± SEM” value ([2]; 10 μM) was 88.64 ± 0.50%, the “Growth inhibition; % ± SEM” value ([2]; 30 μM) was 90.18 ± 1.78% and the IC50 [2] was 7.84 µM. For the same molecule, the “Growth inhibition; % ± SEM” value ([3]; C33-A, 10 μM) was 85.98 ± 1.05%, the “Growth inhibition; % ± SEM” value ([3]; C33-A, 30 μM) was 98.66 ± 0.21% and the IC50 ([3]; C33-A) was 4.13 µM. The “Growth inhibition; % ± SEM” value ([4]; 10 μM) was 40.41 ± 1.25%, the “Growth inhibition; % ± SEM” value ([4]; 30 μM) was 56.84 ± 1.16% and the IC50 [4] was 19.2 µM. For the same molecule, the “Growth inhibition; % ± SEM” value ([5]; A2780, 10 μM, 72 h) was 83.6 ± 1.2%, the “Growth inhibition; % ± SEM” value ([5]; A2780, 30 μM, 72 h) was 95.0 ± 0.3% and the IC50 ([5]; A2780, 72 h) was 1.3 µM. The “Growth inhibition; % ± SEM” value ([6]; MDA-MB-231, 10 μM) was “– (Inhibition values <20% are not presented.)”, the “Growth inhibition; % ± SEM” value ([6]; MDA-MB-231, 30 μM) was 71.47 ± 1.20% and the IC50 ([6]; MDA-MB-231, 72 h) was 19.1 µM. The “Growth inhibition; % ± SEM” value ([7]; UPCI-SCC-154, 10 μM, 72 h) was 87.40 ± 1.72%, the “Growth inhibition; % ± SEM” value ([7]; UPCI-SCC-154, 30 μM, 72 h) was 92.72 ± 1.67% and the IC50 ([7]; UPCI-SCC-154, 72 h) was 1.29 µM. For the same molecule, the “Growth inhibition; % ± SEM” value ([8]; UPCI-SCC-131, 10 μM, 72 h) was 95.63 ± 1.49%, the “Growth inhibition; % ± SEM” value ([8]; UPCI-SCC-131, 30 μM, 72 h) was 95.09 ± 1.57% and the IC50 ([8]; UPCI-SCC-131, 72 h) was 1.22 µM. For the same molecule, the “Growth inhibition; % ± SEM” value ([9]; MCF-7, 10 μM, 72 h) was 66.91 ± 1.81%, the “Growth inhibition; % ± SEM” value ([9]; MCF-7, 30 μM, 72 h) was 96.80 ± 0.35% and the IC50 ([9]; MCF-7, 72 h) was 5.78 µM. For the same molecule, the “Growth inhibition; % ± SEM” value ([10]; NIH/3T3, 10 μM) was 76.74 ± 1.26%, the “Growth inhibition; % ± SEM” value ([10]; NIH/3T3, 30 μM) was 96.90 ± 0.25% and the IC50 ([10]; NIH/3T3, 72 h) was 4.73 µM.
